Laboratory results as given in publication PMC4840437, “Crystal Structures and Binding Dynamics of Odorant-Binding Protein 3 from two aphid species Megoura viciae and Nasonovia ribisnigri” (Scientific Reports, 2016).
Like-named read-outs stand apart in the source and are kept apart here.

Key:
NribOBP3 [1] = target: T1, NribOBP3 (Nasonovia ribisnigri, UniProt A0A0M4AUH6); test: Competitive fluorescence binding assay (NPN displacement)
T1 sequence (A0A0M4AUH6 1-119): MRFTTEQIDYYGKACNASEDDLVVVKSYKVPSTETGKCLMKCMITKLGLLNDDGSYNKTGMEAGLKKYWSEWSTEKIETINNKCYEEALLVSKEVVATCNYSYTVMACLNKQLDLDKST
Procedure: (§1) Proteins were dissolved in 20 mM Tris-HCl buffer pH 7.4 and emission fluorescence spectra were recorded on a LS50 Luminescence Spectrometer (PerkinElmer, Buckinghamshire, UK) at 22 °C in a right angle configuration, with a 1 cm light path quartz cuvette and 5–10 nm slits for excitation and emission. […] The probe was excited at 337 nm and emission spectra were recorded between 380 and 450 nm. […] For determining binding constants, the intensity values corresponding to the maximum fluorescence emission were plotted against free ligand concentrations. We use GraphPad (http://www.graphpad.com/guides/prism/6/curve-fitting/index.htm?reg_one_site_competition_ki.htm) to determine the equilibrium dissociation constant Ki of ligand by measuring its competition for NPN and nonlinear regression curve fitting to the one site competitive binding model. This model fits the Ki of the ligand directly using the fixed concentration of NPN and the dissociation constant for NPN KNPN obtained from a direct fluorescence titration and nonlinear regression curve fitting to one site binding model Y = Bmax*X/(KNPN + X) + NS*X (X is the NPN concentration, Bmax is the maximum specific binding in the same units as Y, NS is the slope of nonspecific binding in Y units divided by X units). The corrected Ki is fitted directly rather than fitting an IC50 and modifying it with the Cheng and Prusoff equation[48]. The analysis assumes that the protein has one binding site and 100% active, and that the binding is reversible and at equilibrium. Tested compounds were EβF (Bedoukian Research, Danbury, CT, USA), β-pinene, (−)-α-pinene and (+)-limonene (Sigma, St. Louis, MO).

MvicOBP3 [2] = target: T2, MvicOBP3 (Megoura viciae, UniProt A0A0S2E5N6); test: as above
T2 sequence (A0A0S2E5N6 2-122): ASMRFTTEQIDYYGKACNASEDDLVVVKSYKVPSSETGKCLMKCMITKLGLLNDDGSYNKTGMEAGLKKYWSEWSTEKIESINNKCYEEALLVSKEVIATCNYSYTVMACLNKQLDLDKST
Procedure: as §1

NribOBP3 [3] = target: T1, NribOBP3; test: Direct fluorescence titration of the probe NPN; format: binding; details: recombinant NribOBP3, 2 μM protein, 20 mM Tris-HCl pH 7.4, 22 °C; read-out: Kd of fluorescent probe NPN
Procedure: as §1, with “The analysis assumes that the protein has one binding site and 100% active, and that the binding is reversible and at equilibrium. Tested compounds were EβF (Bedoukian Research, Danbury, CT, USA), β-pinene, (−)-α-pinene and (+)-limonene (Sigma, St. Louis, MO).” left out

MvicOBP3 [4] = target: T2, MvicOBP3; test: Direct fluorescence titration of the probe NPN; format: binding; details: recombinant MvicOBP3, 2 μM protein, 20 mM Tris-HCl pH 7.4, 22 °C; read-out: Kd of fluorescent probe NPN
Procedure: as §1, with “The analysis assumes that the protein has one binding site and 100% active, and that the binding is reversible and at equilibrium. Tested compounds were EβF (Bedoukian Research, Danbury, CT, USA), β-pinene, (−)-α-pinene and (+)-limonene (Sigma, St. Louis, MO).” left out

[5] = displacement of NPN (2 μM) from NribOBP3/NPN complex, one site competitive binding model, read-out: Competitive inhibitor binding constant (Ki)
[6] = displacement of NPN (2 μM) from MvicOBP3/NPN complex, one site competitive binding model, read-out: Competitive inhibitor binding constant (Ki)

Ki (NribOBP3 [1]; [5]) [nM]	Ki (MvicOBP3 [2]; [6]) [nM]	Structure (SMILES)	also measured
5200	100	C=CC(=C)CC/C=C(\C)CCC=C(C)C [(E)-β-farnesene]	
		c1ccc(Nc2cccc3ccccc23)cc1 [NPN, N-phenyl-1-naphthylamine]	Kd (NribOBP3 [3]): 9000 nM; Kd (MvicOBP3 [4]): 1900 nM
		C=C1CCC2CC1C2(C)C (stereo not drawn) [β-pinene]	Ki (NribOBP3 [1]): 30700 nM; Ki (MvicOBP3 [2]): 2300 nM
20200	1800	CC1=CCC2CC1C2(C)C (stereo not drawn) [(−)-α-pinene]	

Structure (SMILES)	Ki (NribOBP3 [1]; [5]) [nM]	Ki (MvicOBP3 [2]; [6]) [nM]	also measured
C=C(C)C1CC=C(C)CC1 (single isomer, unassigned; (+)) [(+)-limonene]		2500	
